The values below come from ChEMBL document CHEMBL1154163, “Pyrazole-based cathepsin S inhibitors with arylalkynes as P1 binding elements” (Bioorg Med Chem Lett, 2009).

Series [1] addresses Cathepsin S (Homo sapiens, UniProt P25774). The series can be described thus: Inhibition of human recombinant cathepsin S expressed in baculovirus by FRET assay.
In series [2] the target is Cathepsin S (Mus musculus, UniProt O70370). Put plainly: Inhibition of mouse cathepsin S expressed in baculovirus by FRET assay.
A further series addresses Cathepsin B (Homo sapiens, UniProt P07858). The series can be described thus: Inhibition of human cathepsin B.
The next series addresses T1, Cathepsin F (Homo sapiens, UniProt Q9UBX1).
T1 sequence (Q9UBX1 whole entry): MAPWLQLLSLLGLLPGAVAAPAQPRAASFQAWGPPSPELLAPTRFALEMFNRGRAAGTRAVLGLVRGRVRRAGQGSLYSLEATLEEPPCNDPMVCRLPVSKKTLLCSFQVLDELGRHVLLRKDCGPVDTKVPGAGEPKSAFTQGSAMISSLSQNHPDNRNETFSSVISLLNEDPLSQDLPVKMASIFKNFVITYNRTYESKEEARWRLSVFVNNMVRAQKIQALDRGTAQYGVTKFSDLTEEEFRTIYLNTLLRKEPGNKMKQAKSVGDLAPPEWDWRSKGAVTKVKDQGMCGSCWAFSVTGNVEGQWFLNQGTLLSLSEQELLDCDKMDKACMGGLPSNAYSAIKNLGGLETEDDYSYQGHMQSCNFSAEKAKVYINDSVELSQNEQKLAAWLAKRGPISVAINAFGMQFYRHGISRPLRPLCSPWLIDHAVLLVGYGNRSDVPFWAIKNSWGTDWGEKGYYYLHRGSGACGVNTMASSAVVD
The series can be described thus: Inhibition of human cathepsin F.

A further series concerns the target Procathepsin L (Homo sapiens, UniProt P07711). Put plainly: Inhibition of human cathepsin L.
Series [3] in a line: Cmax in Sprague-Dawley rat at 10 mg/kg, po. It counts as ADME, organism-based. More on the design: dose 10 mg/kg, route oral. The note with it: in vivo.
In a further series the test system is Rattus norvegicus. The series can be described thus: AUC in Sprague-Dawley rat at 10 mg/kg, po. It counts as ADME, organism-based, Plasma. More on the design: dose 10 mg/kg, route oral. The note with it: in vivo.
Series [4] can be described thus: Half life in Sprague-Dawley rat at 2 mg/kg, iv. It counts as ADME, organism-based. More on the design: dose 2 mg/kg, route intravenous. The note with it: in vivo.
The nature of series [5]: Clearance in Sprague-Dawley rat at 2 mg/kg, iv. It counts as ADME, organism-based. Set-up: dose 2 mg/kg, route intravenous. The note with it: in vivo.
Series [6] can be described thus: Bioavailability in Sprague-Dawley rat at 2 mg/kg, iv. It counts as ADME, organism-based. The note with it: in vivo.

Molecules are shown by their SMILES.

Cathepsin S (Homo sapiens, UniProt P25774), sequence (P25774 whole entry): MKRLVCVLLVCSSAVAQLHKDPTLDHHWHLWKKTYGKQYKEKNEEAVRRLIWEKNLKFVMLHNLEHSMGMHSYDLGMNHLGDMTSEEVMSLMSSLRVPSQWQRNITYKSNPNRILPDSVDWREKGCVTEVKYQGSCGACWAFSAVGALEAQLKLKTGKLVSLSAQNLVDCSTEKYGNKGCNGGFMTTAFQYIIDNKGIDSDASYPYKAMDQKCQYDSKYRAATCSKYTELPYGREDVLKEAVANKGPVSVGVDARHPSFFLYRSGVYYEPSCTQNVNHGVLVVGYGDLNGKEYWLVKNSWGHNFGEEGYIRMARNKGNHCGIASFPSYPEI
Procathepsin L, sequence (P07711 whole entry): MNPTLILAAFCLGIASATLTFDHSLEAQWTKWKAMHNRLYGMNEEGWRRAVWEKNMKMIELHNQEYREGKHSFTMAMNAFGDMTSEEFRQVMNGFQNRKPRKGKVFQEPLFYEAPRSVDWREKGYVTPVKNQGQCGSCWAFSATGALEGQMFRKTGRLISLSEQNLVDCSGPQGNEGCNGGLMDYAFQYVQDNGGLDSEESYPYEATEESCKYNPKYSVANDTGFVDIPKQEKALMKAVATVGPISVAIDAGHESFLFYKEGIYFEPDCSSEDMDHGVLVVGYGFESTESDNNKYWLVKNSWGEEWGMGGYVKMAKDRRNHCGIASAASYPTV
Cathepsin S (Mus musculus, UniProt O70370), sequence (O70370 whole entry): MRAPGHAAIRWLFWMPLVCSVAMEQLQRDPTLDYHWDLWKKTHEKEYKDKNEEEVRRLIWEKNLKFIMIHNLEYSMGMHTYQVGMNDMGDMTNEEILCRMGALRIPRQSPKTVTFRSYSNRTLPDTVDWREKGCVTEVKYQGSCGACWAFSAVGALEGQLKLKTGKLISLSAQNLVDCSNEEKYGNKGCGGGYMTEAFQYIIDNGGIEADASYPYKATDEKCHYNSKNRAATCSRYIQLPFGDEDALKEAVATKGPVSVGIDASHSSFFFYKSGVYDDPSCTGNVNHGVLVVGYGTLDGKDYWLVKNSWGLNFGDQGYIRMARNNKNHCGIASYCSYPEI

As usually defined, the IC50 is the concentration needed to halve the response being measured. `CS(=O)(=O)N1CCc2c(c(-c3ccc(Cl)c(C#Cc4cccc(C(F)(F)F)c4)c3)nn2CCCN2CCOCC2)C1`: the IC50 on Cathepsin S [1] came to 1500 nM. As to `O=C(c1ccco1)N1CCc2c(c(-c3ccc(Cl)c(C#Cc4ccc(Cl)cc4)c3)nn2CCCN2CCOCC2)C1`, the IC50 at Cathepsin S [1] was 330 nM. With `CS(=O)(=O)N1CCc2c(c(-c3ccc(Cl)c(C#Cc4ccc(C(F)(F)F)cc4)c3)nn2CCCN2CCOCC2)C1`, on Cathepsin S [1], the IC50 turned out to be 280 nM. The same measure, in the same setting: the figure for `COc1ccccc1C#Cc1cc(-c2nn(CCCN3CCOCC3)c3c2CN(S(C)(=O)=O)CC3)ccc1Cl` is 550 nM.

With `CS(=O)(=O)N1CCc2c(c(-c3ccc(Cl)c(C#Cc4ccc(C(=O)O)cc4)c3)nn2CCCN2CCOCC2)C1`, on Cathepsin S [1], the IC50 worked out at 510 nM. On the same count and under the same terms, the figure for `COC(=O)N1CCc2c(c(-c3ccc(Cl)c(C#Cc4ccc(Cl)cc4)c3)nn2CCCN2CCOCC2)C1` is 40 nM. Still for that read-out and setting: the figure for `CS(=O)(=O)N1CCc2c(c(-c3ccc(Cl)c(C#Cc4ccsc4)c3)nn2CCCN2CCOCC2)C1` is 1500 nM. The same measure, in the same setting: the figure for `CC#Cc1cc(-c2nn(CCCN3CCOCC3)c3c2CN(S(C)(=O)=O)CC3)ccc1Cl` is 7400 nM; for `CCCCC#Cc1cc(-c2nn(CCCN3CCOCC3)c3c2CN(S(C)(=O)=O)CC3)ccc1Cl` it is 11000 nM. On to `Cc1ccccc1C#Cc1cc(-c2nn(CCCN3CCOCC3)c3c2CN(S(C)(=O)=O)CC3)ccc1Cl`, for which the IC50 on Cathepsin S [1] stood at 1100 nM. `COc1ccc(C#Cc2cc(-c3nn(CCCN4CCOCC4)c4c3CN(S(C)(=O)=O)CC4)ccc2Cl)cc1`: the IC50 at Cathepsin S [1] was determined as 480 nM.

Regarding `CS(=O)(=O)N1CCc2c(c(-c3ccc(Cl)c(C#Cc4ccc(N)cc4)c3)nn2CCCN2CCOCC2)C1`, the IC50 on Cathepsin S [1] came out at 430 nM. For orientation: Cmax means the peak of the concentration-time curve. The term half-life denotes the time in which the quantity being followed falls by half. The low end stands for rapid decline, the high end for slow decline. By clearance is commonly meant the volume of plasma or blood freed of the substance per unit of time. A high value points to efficient removal. Broadly, the bioavailability is the share of a dose that reaches the circulation, judged against a reference dose that is usually intravenous. A high value points to much systemic uptake. `CS(=O)(=O)N1CCc2c(c(-c3ccc(Cl)c(C#Cc4ccc(Cl)cc4)c3)nn2CCCN2CCOCC2)C1`: the IC50 against Cathepsin S [2] is 690 nM; on Cathepsin B, more than 20000 nM; at Cathepsin F it was more than 20000 nM; against Procathepsin L, more than 20000 nM. The peak concentration (Cmax) in [3] stood at 530 nM. The AUC in the series on Rattus norvegicus stood at 48 uM.hr/L. This compound also gave a half-life in series [4] of 2 h. For the same compound, the clearance in series [5] was 3 mL/min. This compound also gave a bioavailability in [6] of 21%.
